This is an account of results in patent publication US20100267734A1, “N-[(3,5-DICHLOROPHENYL)METHYL]-2-(4-METHYL-1-PIPERAZINYL)-2-(1-NAPHTHALENYL)ETHANAMIDE AS GHRELIN RECEPTOR MODULATOR” (Glaxo Group Limited, priority 2007, published 2010).

Where a name gives a salt, the structure may show the parent alone.

The target in assay [1] is T1, Human GHSR (Homo sapiens, UniProt Q92847). Nature of the assay: GHS-R GTPγS functional antagonist assay. Type of assay: biochemical. The following applies: membranes of HEK293T cells transiently expressing GHS-R; human Ghrelin at EC80; [35S]GTPγS SPA. On the set-up: The full-length gene was transferred into pCDN for expression analysis; expressed in transfected cells; host or cells: CHO cells (electroporated, pCDN) or HEK293T cells (transient, pcDNA3); membranes prepared from the cultured cells. Here is the method:
Human GHS-R was cloned from human hypothalamus cDNA and TOPO Ta cloned into pCR2.1. The sequence was confirmed. The full-length gene was transferred into pCDN for expression analysis. The sequence was confirmed again and the plasmid was electroporated into CHO cells. The clones were screened by FLIPR.
HEK293T cells (HEK293 cells stably expressing the SV40 large T-antigen) were maintained in DMEM containing 10% (v/v) newborn calf serum and 2 mM glutamine. Cells were seeded in 60 mm culture dishes and grown to 60-80% confluency (18-24 h) prior to transfection with pcDNA3 containing the relevant DNA species using Lipofectamine reagent. […]
The plate was then incubated on a shaker at room temperature for 30 mins followed by centrifugation for 5 mins at 1500 rpm. The plate was read between 3 and 6 hours after completion of centrifuge run in a Wallac Microbeta counter on a 1 min normalised tritium count protocol. Data was analysed using a 4-parameter logistic equation. […]
Protocol as described above for functional agonist assay, except prior to addition of the [35-S], 10 ul of human Ghrelin solution in assay buffer was added to give a final concentration equating to EC80 (determined for each assay).

Assay [2] addresses T1, Human GHSR. In words: GHSR Antagonist BACMAM FLIPR Assay (Method B). Type of assay: cell-based. On the set-up: The full-length gene was transferred into pCDN for expression analysis; expressed in transfected cells; host or cells: U2OS cells transduced with human GHSR BacMam virus (pFastBacmam, CMV promoter). As to conditions: U2OS cells transduced with human GHSR BACMAM virus, EC80 hGhrelin, accurate to within ±0.5. The text has this: Human GHS-R was cloned from human hypothalamus cDNA and TOPO Ta cloned into pCR2.1. The sequence was confirmed. The full-length gene was transferred into pCDN for expression analysis. The sequence was confirmed again and the plasmid was electroporated into CHO cells. The clones were screened by FLIPR. The open reading frame of GHS-R was transferred from pCDN into pFastBacmam vector. This vector was used to generate recombinant baculoviruses in which the insect cell-specific polyhedrin promoter has been replaced with a mammalian cell-active promoter, in this case CMV. This was then used with the Bac to Bac expression system (Invitrogen). Briefly the vector was transformed into DH10 bac E. coli and the bacmid isolated from the transformed cells. The bacmid was then transfected into Sf9 insect cells grown in ExCell 420 (JRH) medium in 6-well dishes for the production of recombinant baculovirus particules. 24 hours prior to assay U2OS cells at confluence 100% were harvested and spun down. The supernatant was removed and the cells resuspended in media (DMEM+10% FBS+1% L-Glutamine). […] Human GHSR BACMAM virus was added to the cell suspension at an appropriate % volume (calculated for individual batches of BACMAM virus as viral titres vary). […] Maximum changes in fluorescence were plotted and curves fitted using a 4-parameter logistic equation to generate pIC50 values.

Assay [3] deals with T1, Human GHSR. In words: GHSR Agonist BACMAM FLIPR Assay (Method Y). The assay is classed as cell-based. Details: The full-length gene was transferred into pCDN for expression analysis; expressed in transfected cells; host or cells: U2OS cells transduced with human GHSR BacMam virus (pFastBacmam, CMV promoter). The following applies: U2OS cells transduced with human GHSR BACMAM virus, accurate to within ±0.5. The source says: Human GHS-R was cloned from human hypothalamus cDNA and TOPO Ta cloned into pCR2.1. The sequence was confirmed. The full-length gene was transferred into pCDN for expression analysis. The sequence was confirmed again and the plasmid was electroporated into CHO cells. The clones were screened by FLIPR. The open reading frame of GHS-R was transferred from pCDN into pFastBacmam vector. This vector was used to generate recombinant baculoviruses in which the insect cell-specific polyhedrin promoter has been replaced with a mammalian cell-active promoter, in this case CMV. This was then used with the Bac to Bac expression system (Invitrogen). Briefly the vector was transformed into DH10 bac E. coli and the bacmid isolated from the transformed cells. […] Human GHSR BACMAM virus was added to the cell suspension at an appropriate % volume (calculated for individual batches of BACMAM virus as viral titres vary). […] The plates were placed in a FLuorimetric Imaging Plate Reader (FLIPR, Molecular Devices) where 10 μl of compound was added to the cells and fluorescence measurements were taken. […] Intrinsic activity of the compounds was calculated by using the maximum asymptote of it's concentration response curve relative to the maximum asymptote of the hGhrelin concentration response curve.

T1 sequence (Q92847 whole entry): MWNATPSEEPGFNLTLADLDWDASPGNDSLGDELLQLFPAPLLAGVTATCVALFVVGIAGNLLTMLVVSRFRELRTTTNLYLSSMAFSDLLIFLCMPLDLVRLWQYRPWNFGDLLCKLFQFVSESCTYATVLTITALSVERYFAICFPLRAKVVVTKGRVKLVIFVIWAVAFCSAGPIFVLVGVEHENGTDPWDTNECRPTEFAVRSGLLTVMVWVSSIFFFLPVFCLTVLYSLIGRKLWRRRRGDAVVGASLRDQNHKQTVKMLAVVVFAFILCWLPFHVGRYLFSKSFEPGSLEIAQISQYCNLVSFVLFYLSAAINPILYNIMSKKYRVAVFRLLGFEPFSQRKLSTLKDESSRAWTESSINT

In the case of `CN1CCN(C(C(=O)NCc2cc(Cl)cc(Cl)c2)c2cccc3ccccc23)CC1` (racemic) [Compound 1, (±)-N-[(3,5-dichlorophenyl)methyl]-2-(4-methyl-1-piperazinyl)-2-(1-naphthalenyl)ethanamide], in assay [1], the Ki was less than 10 nM.

In turn, `CN1CCN([C@@H](C(=O)NCc2cc(Cl)cc(Cl)c2)c2cccc3ccccc23)CC1` [Compound 3, (2R)-N-[(3,5-dichlorophenyl)methyl]-2-(4-methyl-1-piperazinyl)-2-(1-naphthalenyl)ethanamide hydrochloride] gave an IC50 in assay [2] of 10 nM. The EC50 in assay [3] was more than 2000 nM. Besides, the Ki in assay [1] was less than 10 nM.

Usually Ki stands for the equilibrium dissociation constant of an inhibitor or competing ligand from its target. Broadly, the IC50 is the midpoint of a concentration-inhibition curve. Broadly, the EC50 is the concentration needed to bring the measured effect to its halfway point.
